In this assay the test system is Sprague-Dawley rats after paw incision. Nature of the assay: Anesthetic effect in a paw incision rat model (Von Frey, 50% paw withdrawal threshold). Format: in vivo. The conditions noted are these: intra-plantar injection after paw incision, 1.9 mg ropivacaine articles, 1.33 mg ER Bupivacaine per incision, 0.5 hour after injection. The source says: FIG. 1A is a graph depicting 50% paw withdrawal threshold by a Von Frey test; wherein an anesthetic composition in accordance with the present disclosure (Ropivacaine composition) is our test article and ropivacaine injectable solution (unformulated ropivacaine) and commercial extended release liposomal bupivacaine (ER Bupivacaine) are used as reference articles. Saline, Ropivacaine composition, Ropivacaine injectable solution, and ER Bupivacaine were intra-plantarly administered after paw incision; the error bars represent the standard error of mean (SEM); and *:P<0.05 when compared to ER Bupivacaine group; BBL=Before surgery baseline; ABL=After surgery baseline.
FIG. 1B is a graph depicting the percentage of maximum possible effects (% MPE), calculated from the 50% paw withdrawal threshold using the formula % MPE=(Thresholdaftertreatment−ABL)/(BBL−ABL)×100%; wherein the error bars represent the standard error of mean (SEM); *:P<0.05 when compared to ER Bupivacaine group. MPE over 30% is considered effective;
Sprague-Dawley rats were used for evaluating the anesthetic efficacy after paw incision as described in Pain. 1996 March; 64(3):493-501. […]
Before surgery baselines (BBL) of 27 rats were measured −1 to −3 days prior to surgery; after surgery baselines (ABL) of 27 rats were measured 30 minutes after surgery. […]

For `CCCN1CCCC[C@H]1C(=O)Nc1c(C)cccc1C` [unformulated ropivacaine, ropivacaine], the “50% paw withdrawal threshold at T=0.5 hour” value is 11.47 g.

The values are drawn from patent US11938220B2, “Sustained-release anesthetic compositions and methods of preparation thereof” (TLC Biopharmaceuticals, Inc., priority 2018, dated 2024).
